Test results as given in US20250257059A1, “PROTEIN TYROSINE PHOSPHATASE INHIBITORS AND USES THEREOF” (Nerio Therapeutics, Inc., priority 2022, published 2025).
Where two headings read alike, the source gives them in different places.

Legend:
[1] = target: full-length human PTPN2 (TC45) (1-387) (Homo sapiens (Human), UniProt P17706); experiment: Enzymatic assay used to determine potency of PTPN2 inhibitors (full length PTPN2 DiFMUP assay); type: biochemical; settings: 0.5 nM PTPN2, 100 μM DiFMUP, 30 min at room temperature
full-length human PTPN2 (TC45) (1-387), sequence (P17706 other isoform, or with tags, fused parts or gaps): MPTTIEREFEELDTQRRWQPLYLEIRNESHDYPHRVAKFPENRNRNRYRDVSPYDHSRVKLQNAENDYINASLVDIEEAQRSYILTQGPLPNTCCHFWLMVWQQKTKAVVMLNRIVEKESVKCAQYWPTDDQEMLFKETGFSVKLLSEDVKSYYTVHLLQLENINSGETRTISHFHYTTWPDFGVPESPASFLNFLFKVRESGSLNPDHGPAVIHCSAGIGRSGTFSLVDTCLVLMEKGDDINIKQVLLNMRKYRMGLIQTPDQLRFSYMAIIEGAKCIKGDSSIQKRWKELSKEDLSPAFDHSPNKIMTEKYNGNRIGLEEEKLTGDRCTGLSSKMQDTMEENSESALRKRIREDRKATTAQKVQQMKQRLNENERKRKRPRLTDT
Method: Compound activity was determined in an in vitro enzymatic assay using untagged, full-length human PTPN2 (TC45) (1-387) protein. PTPN2 was produced in E. coli as a GST-TEV fusion and the GST was removed by TEV digestion, followed by additional purification to yield full-length PTPN2 (SEQ ID 1). PTPN2 enzyme was diluted in assay buffer (50 mM HEPES pH7.5, 0.2 mM EDTA, 1 mM DTT, 0.02% Brij-35, 0.02% BSA) to a final concentration of 0.5 nM and added to black 384-well non-binding plates (Greiner, 781900). Compounds were subsequently added using a Tecan D300e dispenser. Following a 10 min incubation at room temperature, DiFMUP substrate (ThermoFisher, D22065) was added to a final concentration of 100 μM. Plates were transferred to a SpectraMax plate reader (Molecular Devices) and fluorescence intensity was measured (ex 358, em 455) after a 30 min incubation at room temperature. […] A four-parameter curve fit was used to determine IC50 values from % inhibition data.

[2] = system: murine B16F10 melanoma cell line; experiment: B16F10 IFNγ-induced cellular growth inhibition assay (xCELLigence RTCA); type: cell-based; settings: B16F10 cells, 1 ng/mL mouse IFNγ, AUC of growth curve, read-out: B16 IFNγ Mediated Growth Inhibition Assay: AVG IC50
Method: Compound activity was determined using an interferon gamma (IFNγ)-induced cellular growth inhibition assay with the murine B16F10 melanoma cell line on an Agilent xCELLigence Real-Time Cell Analysis platform (RTCA). RTCA E-Plate View 96 plates (Agilent, 300601010) were pre-equilibrated with 50 μL of assay media (DMEM+10% FBS, Gibco 10566-024, Gibco 10082-147) at 37° C. in a humidified incubator before taking an initial measurement of impedance (sweep). B16F10 cells cultured in assay media were dissociated with TrypLE Express (Gibco 12605-010) for five minutes at 37° C., diluted in 3 volumes of assay buffer, centrifuged for 5 minutes at 500×g at room temperature before diluting cells to 7,700 cells/mL in assay media, plating 130 μL/well (1,000 cells/well) in the inner 60 wells of the assay plate, and adding 150 μL of assay media to the outer wells of the plate. Cells were incubated at room temperature for 20 min to allow cells to settle before placing them in the xCELLigence reader and incubating overnight at 37° C., sweeping wells every 15 minutes. After 24 hours, well readings were paused, plates were removed from the incubator and compounds were added using a Tecan D300e dispenser. All wells were normalized to a final concentration of 0.5% DMSO. Following a 30 min incubation at 37° C., recombinant mouse IFNγ (R&D Systems™ 485MI100) was diluted to 10 ng/mL in assay media and 20 μL was added to assay wells (1 ng/mL final concentration). Assay plates were placed in the xCELLigence reader and swept every 15 minutes.

`O=C1CN(c2c(O)cc(CCN3CCC(O)C3)cc2F)S(=O)(=O)N1` (stereo not shown) [Example 103] was tested, and the IC50 [1] was 50 nM and the IC50 ([2]; Mus musculus, B16-F10, 48 h) was 13200 nM.

`C[C@@H]1CCN(CCc2cc(O)c(N3CC(=O)NS3(=O)=O)c(F)c2)C1` [Example 138] showed an IC50 [1] of 2 nM and an IC50 ([2]; Mus musculus, B16-F10, 48 h) of 406 nM.

Work on `O=C1CN(c2c(O)cc(CCC3CCCN3)cc2F)S(=O)(=O)N1` (stereo not shown) [Example 66] yielded an IC50 [1] of 16 nM and an IC50 ([2]; Mus musculus, B16-F10, 48 h) of 4270 nM.

Compound `O=C1CN(c2c(O)cc(CC3CCCN(Cc4ncc[nH]4)C3)cc2F)S(=O)(=O)N1` (stereo not shown) [Example 52] has an IC50 [1] of 44 nM and an IC50 ([2]; Mus musculus, B16-F10, 48 h) of over 73000 nM.

`O=C1CN(c2c(O)cc(CCN3CC[C@H](C(F)(F)F)C3)cc2F)S(=O)(=O)N1` (single isomer, unassigned) [Example 123] showed an IC50 [1] of 2 nM and an IC50 ([2]; Mus musculus, B16-F10, 48 h) of 1840 nM.

`CN1CCCCC(Cc2cc(O)c(N3CC(=O)NS3(=O)=O)c(F)c2)C1` (stereo not shown) [Example 56, 5-(2-fluoro-6-hydroxy-4-((1-methylazepan-3-yl)methyl)phenyl)-1,2,5-thiadiazolidin-3-one 1,1-dioxide] gave an IC50 [1] of 28 nM and an IC50 ([2]; Mus musculus, B16-F10, 48 h) of over 45000 nM.

For `O=C1CN(c2c(O)cc(CC3CCCN(CCC4CCOCC4)C3)cc2F)S(=O)(=O)N1` (stereo not shown) [Example 40], the IC50 [1] was 46 nM and the IC50 ([2]; Mus musculus, B16-F10, 48 h) was 38600 nM.

With `C[C@H]1CCN(CCc2cc(O)c(N3CC(=O)NS3(=O)=O)c(F)c2)C1` [Example 139] the IC50 [1] was 2 nM and the IC50 ([2]; Mus musculus, B16-F10, 48 h) was 509 nM.

With `CC(C)CC1CCN(Cc2cc(O)c(N3CC(=O)NS3(=O)=O)c(F)c2)C1` (stereo not shown) [Example 72] the IC50 [1] was 66 nM and the IC50 ([2]; Mus musculus, B16-F10, 48 h) was 8440 nM.

Compound `O=C1CN(c2c(O)cc(CC3CCCN(CC4CCNCC4)C3)cc2F)S(=O)(=O)N1` (stereo not shown) [Example 44] has an IC50 [1] of 4 nM and an IC50 ([2]; Mus musculus, B16-F10, 48 h) of 38000 nM.

In the case of `O=C1CN(c2c(O)cc(CCN3CCC(O)CC3)cc2F)S(=O)(=O)N1` [Example 101], the IC50 [1] is reported as 2 nM and the IC50 ([2]; Mus musculus, B16-F10, 48 h) is reported as 1690 nM.

`O=C1CN(c2c(O)cc(CC3CCN(CC4CCCC4)C3)cc2F)S(=O)(=O)N1` (stereo not shown) [Example 21] showed an IC50 [1] of 15 nM and an IC50 ([2]; Mus musculus, B16-F10, 48 h) of 4590 nM.

`O=C1CN(c2c(O)cc(CC3CCCN(CC4CC4)C3)cc2F)S(=O)(=O)N1` (stereo not shown) [Example 37] gave an IC50 [1] of 66 nM and an IC50 ([2]; Mus musculus, B16-F10, 48 h) of 46400 nM.

For `O=C1CN(c2c(O)cc(CC3CCN(Cc4cocn4)C3)cc2F)S(=O)(=O)N1` (stereo not shown) [Example 16], the IC50 [1] was 16 nM and the IC50 ([2]; Mus musculus, B16-F10, 48 h) was 35800 nM.

Compound `O=C1CN(c2c(O)cc(CCN3CCNCC3)cc2F)S(=O)(=O)N1` [Example 100] has an IC50 [1] of 5 nM and an IC50 ([2]; Mus musculus, B16-F10, 48 h) of 51000 nM.

For `O=C1CN(c2c(O)cc(CC3CCN(CC4CC4)C3)cc2F)S(=O)(=O)N1` (stereo not shown) [Example 10], the IC50 [1] was 50 nM and the IC50 ([2]; 48 hours) was 17400 nM.

For `CCCN1CCCC(Cc2cc(O)c(N3CC(=O)NS3(=O)=O)c(F)c2)C1` (stereo not shown) [Example 49], the IC50 [1] was 96 nM and the IC50 ([2]; Mus musculus, B16-F10, 48 h) was over 38000 nM.

`CC(C)(C)CCN1CCCC(Cc2cc(O)c(N3CC(=O)NS3(=O)=O)c(F)c2)C1` (stereo not shown) [Example 35] gave an IC50 [1] of 31 nM and an IC50 ([2]; Mus musculus, B16-F10, 48 h) of 13000 nM.

`CCCC1CCN(CCc2cc(O)c(N3CC(=O)NS3(=O)=O)c(F)c2)C1` (stereo not shown) [Example 86] gave an IC50 [1] of 4 nM and an IC50 ([2]; Mus musculus, B16-F10, 48 h) of 651 nM.

With `CCCC1CCCN1Cc1cc(O)c(N2CC(=O)NS2(=O)=O)c(F)c1` (stereo not shown) [Example 70, 5-(2-fluoro-6-hydroxy-4-((2-propylpyrrolidin-1-yl)methyl)phenyl)-1,2,5-thiadiazolidin-3-one 1,1-dioxide] the IC50 [1] was 204 nM and the IC50 ([2]; Mus musculus, B16-F10, 48 h) was over 45000 nM.

For `O=C1CN(c2c(O)cc(CCN3CCC(F)(F)C3)cc2F)S(=O)(=O)N1` [Example 91], the IC50 [1] was 36 nM and the IC50 ([2]; Mus musculus, B16-F10, 48 h) was over 24000 nM.

Compound `O=C1CN(c2c(O)ccc(CC3CCCCN3CCc3ccccc3)c2F)S(=O)(=O)N1` (stereo not shown) [Example 78] has an IC50 [1] of 13 nM and an IC50 ([2]; Mus musculus, B16-F10, 48 h) of 11000 nM.

Work on `O=C1CN(c2c(O)cc(CC3CCCN(CC4CCC4)C3)cc2F)S(=O)(=O)N1` (stereo not shown) [Example 32] yielded an IC50 [1] of 35 nM and an IC50 ([2]; Mus musculus, B16-F10, 48 h) of 14800 nM.

`CCC1CN(CCc2cc(O)c(N3CC(=O)NS3(=O)=O)c(F)c2)C1` [Example 126] gave an IC50 [1] of 3 nM and an IC50 ([2]; Mus musculus, B16-F10, 48 h) of 775 nM.

Work on `CCCCCN1CCCC(Cc2cc(O)c(N3CC(=O)NS3(=O)=O)c(F)c2)C1` (stereo not shown) [Example 33] yielded an IC50 [1] of 35 nM and an IC50 ([2]; Mus musculus, B16-F10, 48 h) of 28800 nM.

`CN1CCCC(Cc2cc(O)c(N3CC(=O)NS3(=O)=O)c(F)c2)CC1` (stereo not shown) [Example 60] was tested, and the IC50 [1] was 24 nM and the IC50 ([2]; Mus musculus, B16-F10, 48 h) was over 73000 nM.

`O=C1CN(c2c(O)cc(CCN3CCCC3)cc2F)S(=O)(=O)N1` [Example 83, 5-(2-fluoro-6-hydroxy-4-(2-(pyrrolidin-1-yl)ethyl)phenyl)-1,2,5-thiadiazolidin-3-one 1,1-dioxide] showed an IC50 [1] of 3 nM and an IC50 ([2]; Mus musculus, B16-F10, 48 h) of 674 nM.

For `CCC1CCN(CCc2cc(O)c(N3CC(=O)NS3(=O)=O)c(F)c2)C1` (stereo not shown) [Example 87], the IC50 [1] was 3 nM and the IC50 ([2]; Mus musculus, B16-F10, 48 h) was 299 nM.

`CC(C)(C)C1CN(CCc2cc(O)c(N3CC(=O)NS3(=O)=O)c(F)c2)C1` [Example 129] gave an IC50 [1] of 2 nM and an IC50 ([2]; Mus musculus, B16-F10, 48 h) of 660 nM.

`CCC1CCN(CCc2cc(O)c(N3CC(=O)NS3(=O)=O)c(F)c2)CC1` [Example 125] showed an IC50 [1] of 2 nM and an IC50 ([2]; Mus musculus, B16-F10, 48 h) of 3090 nM.

For `O=C1CN(c2c(O)cc(CC3CCN(CC4CCC4)C3)cc2F)S(=O)(=O)N1` (stereo not shown) [Example 22], the IC50 [1] was 10 nM and the IC50 ([2]; Mus musculus, B16-F10, 48 h) was 1230 nM.

With `O=C1CN(c2c(O)cc(CCN3CC4(CCCC4)C3)cc2F)S(=O)(=O)N1` [Example 114] the IC50 [1] was 7 nM and the IC50 ([2]; Mus musculus, B16-F10, 48 h) was 371 nM.

In the case of `O=C1CN(c2c(O)cc(CCN3CC(CC(F)(F)F)C3)cc2F)S(=O)(=O)N1` [Example 142], the IC50 [1] is reported as 3 nM and the IC50 ([2]; Mus musculus, B16-F10, 48 h) is reported as 542 nM.

`O=C1CN(c2c(O)cc(CCN3CCC(C4CCC4)CC3)cc2F)S(=O)(=O)N1` [Example 121] gave an IC50 [1] of 2 nM and an IC50 ([2]; Mus musculus, B16-F10, 48 h) of 2830 nM.

Work on `O=C1CN(c2c(O)cc(CC3CCCN(Cc4ccco4)C3)cc2F)S(=O)(=O)N1` (stereo not shown) [Example 46] yielded an IC50 [1] of 75 nM and an IC50 ([2]; Mus musculus, B16-F10, 48 h) of over 100000 nM.
